Data on 36 molecules can be found in patent US20260356817A1, “AMINOPYRIMIDINE AND AMINOTRIAZINE DERIVATIVES AS MYC PROTEIN MODULATORS” (Sanford Burnham Prebys Medical Discovery Institute, priority 2022, published 2026).

Where two headings read alike, the source gives them in different places.

The subject of the experiment is Myc. Put plainly: Myc inhibition assay: Myc expression per cell by anti-Myc immunofluorescence, high-content imaging. It is filed as cell-based, human (patient-derived medulloblastoma xenograft cells). The settings on record: medulloblastoma PDX cells, 4 h. The procedure, abridged: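 Cells from Myc-driven medulloblastoma patient-derived orthotopic xenografts, propagated only in NSG mouse cerebellum, were dissociated and plated in serum-free medium. After overnight recovery, compounds were applied for 4 hours; cells were then fixed, stained for Myc and DAPI, and per-cell Myc quantified by high-content imaging to derive IC50.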
In general terms: In xenograft studies the graft and the host belong to different species.

The mark [1] stands for this setting: Table 1, read-out: IC50 (Myc inhibition).
[2] abbreviates: Table 2, read-out: MYC Inhibition IC50.

For the molecule `COc1nccc(-c2ccnc(Nc3ccccc3)n2)n1` [Compound 163, 2′-Methoxy-N-phenyl-[4,4′-bipyrimidin]-2-amine], the IC50 by setting is: under setting [1], 10 to 100 µM; under setting [2], 10 to 100 µM.
With `FC(F)c1cccc(Nc2cc(-c3ccc4[nH]cnc4c3)ccn2)n1` [Compound 278, N-(4-(1H-benzo[d]imidazol-5-yl)pyridin-2-yl)-6-(difluoromethyl)pyridin-2-amine], the IC50 is under 0.2 µM under setting [1] and under 0.2 µM under setting [2].
In the case of `Nc1ncc(-c2ccnc(Nc3cccc(C(F)(F)F)c3)n2)s1` [Compound 119, 5-(2-((3-(Trifluoromethyl)phenyl)amino)pyrimidin-4-yl)thiazol-2-amine], the IC50 runs as follows: under setting [1], under 0.2 µM; under setting [2], under 0.2 µM.
Regarding `O=S(=O)(Nc1ccc(F)cc1)c1cccc(Nc2nccc(-c3ccc4[nH]cnc4c3)n2)c1` [Compound 36, 3-((4-(1H-benzo[d]imidazol-5-yl)pyrimidin-2-yl)amino)-N-(4-fluorophenyl)benzenesulfonamide], the IC50 fell in the range of 0.2 to 1 µM under setting [1] and 0.2 to 1 µM under setting [2].
For `COc1ccc(-c2ccnc(Nc3cccc(C(F)(F)F)c3)n2)cn1` [Compound 212, 4-(6-methoxypyridin-3-yl)-N-(3-(trifluoromethyl)phenyl)pyrimidin-2-amine], the IC50 was 1 to 10 µM under setting [1] and 1 to 10 µM under setting [2].
For `Cn1cnc2cc(-c3ccnc(Nc4cccc(C(F)(F)F)c4)n3)ccc21` [Compound 95, 4-(1-methyl-1H-benzo[d]imidazol-5-yl)-N-(3-(trifluoromethyl)phenyl)pyrimidin-2-amine], the IC50 was under 0.2 µM under setting [1] and under 0.2 µM under setting [2].
For the molecule `FC(F)(F)c1cncc(Nc2nccc(-c3cnc4nc[nH]c4c3)n2)c1` [Compound 106, 4-(1H-imidazo[4,5-b]pyridin-6-yl)-N-(5-(trifluoromethyl)pyridin-3-yl)pyrimidin-2-amine], the IC50 is under 0.2 µM under setting [1] and under 0.2 µM under setting [2].
As to `FC(F)(F)c1cccc(Nc2nccc(N3CCc4[nH]cnc4C3)n2)c1` [Compound 112, 4-(1,4,6,7-tetrahydro-5H-imidazo[4,5-c]pyridin-5-yl)-N-(3-(trifluoromethyl)phenyl)pyrimidin-2-amine], the IC50 was in the range of 1 to 10 µM under setting [1] and 1 to 10 µM under setting [2].
As to `Cc1ccc(Nc2nccc(-c3ccc4[nH]cnc4c3)n2)cc1C(F)(F)F` [Compound 265, 4-(1H-benzo[d]imidazol-5-yl)-N-(4-methyl-3-(trifluoromethyl)phenyl)pyrimidin-2-amine], the IC50 runs as follows: under setting [1], under 0.2 µM; under setting [2], under 0.2 µM.
Regarding `O=c1[nH]c2ccc(-c3ccnc(Nc4cccc(C(F)(F)F)c4)n3)cc2[nH]1` [Compound 116, 5-(2-((3-(trifluoromethyl)phenyl)amino)pyrimidin-4-yl)-1H-benzo[d]imidazol-2(3H)-one], the IC50 reads like this: under setting [1], 10 to 100 µM; under setting [2], 10 to 100 µM.
As for `c1cc(-c2ccc3[nH]cnc3c2)nc(Nc2cnoc2)n1` [Compound 56, N-(4-(1H-benzo[d]imidazol-5-yl)pyrimidin-2-yl)isoxazol-4-amine], the IC50 under setting [1] is 0.2 to 1 µM and the IC50 under setting [2] was in the range of 0.2 to 1 µM.
Regarding `Oc1cc(-c2ccnc(Nc3ccc(F)c(F)c3)n2)ccn1` [Compound 209, 4-(2-((3,4-difluorophenyl)amino)pyrimidin-4-yl)pyridin-2-ol], the IC50 lay within 1 to 10 µM under setting [1] and 1 to 10 µM under setting [2].
In the case of `c1cc(Nc2nccc(-c3ccc4[nH]cnc4c3)n2)cc(-c2cnco2)c1` [Compound 264, 4-(1H-benzo[d]imidazol-5-yl)-N-(3-(oxazol-5-yl)phenyl)pyrimidin-2-amine], the IC50 was under 0.2 µM under setting [1] and under 0.2 µM under setting [2].
For `c1cc(-c2ccc3[nH]cnc3c2)nc(Nc2ccc3c(c2)CCC3)n1` [Compound 97, 4-(1H-benzo[d]imidazol-5-yl)-N-(2,3-dihydro-1H-inden-5-yl)pyrimidin-2-amine], the IC50 is 1 to 10 µM under setting [1] and 1 to 10 µM under setting [2].
Consider `O=C(Nc1cccc(Nc2nccc(-c3ccc4[nH]cnc4c3)n2)c1)c1ccco1` [Compound 254, N-(3-((4-(1H-benzo[d]imidazol-5-yl)pyrimidin-2-yl)amino)phenyl)furan-2-carboxamide], for which the IC50 runs as follows: under setting [1], under 0.2 µM; under setting [2], under 0.2 µM.
`Cn1cnc2cc(-c3ccnc(Nc4cccc(C(F)(F)F)c4)n3)ccc21` [Compound 34, 4-(1-methyl-1H-benzo[d]imidazol-5-yl)-N-(3-(trifluoromethyl)phenyl)pyrimidin-2-amine]: the IC50 runs as follows: under setting [1], 1 to 10 µM; under setting [2], 1 to 10 µM.
Regarding `CCS(=O)(=O)c1cccc(Nc2nccc(-c3ccc4[nH]cnc4c3)n2)c1` [Compound 5, 4-(1H-benzo[d]imidazol-5-yl)-N-(3-(ethylsulfonyl)phenyl)pyrimidin-2-amine], the IC50 runs as follows: under setting [1], under 0.2 µM; under setting [2], under 0.2 µM.
As for `FC(F)(F)c1cncc(Nc2nccc(-c3ccc4[nH]cnc4c3)n2)c1` [Compound 14, 4-(1H-benzo[d]imidazol-5-yl)-N-(5-(trifluoromethyl)pyridin-3-yl)pyrimidin-2-amine], the concentration for half-maximal inhibition (IC50) lay within 10 to 100 µM under setting [1] and 10 to 100 µM under setting [2].
For `O=c1[nH]c2ccc(-c3ccnc(Nc4cccc(F)c4)n3)cc2[nH]1` [Compound 117, 5-(2-((3-fluorophenyl)amino)pyrimidin-4-yl)-1,3-dihydro-2H-benzo[d]imidazol-2-one], the IC50 is, setting by setting: under setting [1], 10 to 100 µM; under setting [2], 10 to 100 µM.
Consider `N#Cc1ccc(Nc2nccc(-c3ccc4[nH]cnc4c3)n2)cc1` [Compound 99, 4-((4-(1H-benzo[d]imidazol-5-yl)pyrimidin-2-yl)amino)benzonitrile], for which the IC50 reads like this: under setting [1], 0.2 to 1 µM; under setting [2], 0.2 to 1 µM.
For the molecule `COc1cc(-c2ccnc(Nc3ccccc3)n2)ncn1` [Compound 162, 6′-methoxy-N-phenyl-[4,4′-bipyrimidin]-2-amine], the IC50 reads like this: under setting [1], 10 to 100 µM; under setting [2], 10 to 100 µM.
Regarding `Cc1cc2nc[nH]c2cc1-c1ccnc(Nc2cccc(C(F)(F)F)c2)n1` [Compound 114, 4-(5-methyl-1H-benzo[d]imidazol-6-yl)-N-(3-(trifluoromethyl)phenyl)pyrimidin-2-amine], the IC50 is 1 to 10 µM under setting [1] and 1 to 10 µM under setting [2].
For `COc1cc(-c2ccnc(Nc3cccc(OCCO)c3)n2)ccn1` [Compound 129, 2-(3-((4-(2-methoxypyridin-4-yl)pyrimidin-2-yl)amino)phenoxy)ethan-1-ol], the IC50 was in the range of 1 to 10 µM under setting [1] and 1 to 10 µM under setting [2].
As to `Cc1cc(Cl)cc(Nc2nccc(-c3ccc4nc[nH]c4c3)n2)c1` [Compound 274, 4-(1H-benzo[d]imidazol-6-yl)-N-(3-chloro-5-methylphenyl)pyrimidin-2-amine], the half-maximal inhibitory concentration (IC50) is, setting by setting: under setting [1], under 0.2 µM; under setting [2], under 0.2 µM.
Regarding `Fc1cccc(Nc2nccc(-c3cnc4nccn4c3)n2)c1` [Compound 273, N-(3-fluorophenyl)-4-(imidazo[1,2-a]pyrimidin-6-yl)pyrimidin-2-amine], the IC50 under setting [1] was 1 to 10 µM and the concentration for half-maximal inhibition (IC50) under setting [2] lay within 1 to 10 µM.
With `FC(F)(F)c1cccc(Nc2nccc(-c3ccc4nccn4c3)n2)c1` [Compound 127, 4-(Imidazo[1,2-a]pyridin-6-yl)-N-(3-(trifluoromethyl)phenyl)pyrimidin-2-amine], the IC50 was in the range of 0.2 to 1 µM under setting [1] and 0.2 to 1 µM under setting [2].
For `N#Cc1cccc(Nc2nccc(-c3ccc4[nH]cnc4c3)n2)c1` [Compound 94, 3-((4-(1H-benzo[d]imidazol-5-yl)pyrimidin-2-yl)amino)benzonitrile], the IC50 under setting [1] is 1 to 10 µM and the IC50 under setting [2] lay in the range of 1 to 10 µM.
In the case of `Oc1cc(-c2ccnc(Nc3ccncn3)n2)ccn1` [Compound 175, 4-(2-(pyrimidin-4-ylamino)pyrimidin-4-yl)pyridin-2-ol], the IC50 by setting is: under setting [1], 10 to 100 µM; under setting [2], 10 to 100 µM.
Regarding `FC(F)(F)c1cccc(Nc2nccc(-c3cnc4cc[nH]c4c3)n2)c1` [Compound 132, 4-(1H-pyrrolo[3,2-b]pyridin-6-yl)-N-(3-(trifluoromethyl)phenyl)pyrimidin-2-amine], the IC50 under setting [1] was in the range of 0.2 to 1 µM and the 50% inhibitory concentration (IC50) under setting [2] was 0.2 to 1 µM.
In the case of `CCCc1cccc(Nc2nccc(-c3cnc4nc[nH]c4c3)n2)c1` [Compound 133, 4-(1H-imidazo[4,5-b]pyridin-6-yl)-N-(3-propylphenyl)pyrimidin-2-amine], the IC50 reads like this: under setting [1], under 0.2 µM; under setting [2], under 0.2 µM.
As for `COc1cccc(-c2ccnc(N(C)c3ccccc3)n2)n1` [Compound 227, 4-(6-methoxypyridin-2-yl)-N-methyl-N-phenylpyrimidin-2-amine], the IC50 by setting is: under setting [1], 10 to 100 µM; under setting [2], 10 to 100 µM.
Turning to `COc1cc(-c2ccnc(Nc3cccc(C(F)(F)F)n3)n2)ccn1` [Compound 168, 4-(2-methoxypyridin-4-yl)-N-(6-(trifluoromethyl)pyridin-2-yl)pyrimidin-2-amine], the IC50 was 10 to 100 µM under setting [1] and 10 to 100 µM under setting [2].
As to `COc1cncc(-c2ccnc(N(C)c3ccccc3)n2)c1` [Compound 224, 4-(5-methoxypyridin-3-yl)-N-methyl-N-phenylpyrimidin-2-amine], the IC50 runs as follows: under setting [1], 10 to 100 µM; under setting [2], 10 to 100 µM.
In the case of `c1coc(CNc2nccc(-c3ccc4[nH]cnc4c3)n2)c1` [Compound 85, 4-(1H-benzo[d]imidazol-5-yl)-N-(furan-2-ylmethyl)pyrimidin-2-amine], the IC50 runs as follows: under setting [1], 1 to 10 µM; under setting [2], 1 to 10 µM.
For the molecule `CN(c1ccccc1)c1nccc(-c2ccc(O)nc2)n1` [Compound 222, 5-(2-(methyl(phenyl)amino)pyrimidin-4-yl)pyridin-2-ol], the IC50 reads like this: under setting [1], 10 to 100 µM; under setting [2], 10 to 100 µM.
In the case of `Oc1cncc(-c2ccnc(Nc3cccc(F)c3)n2)c1` [Compound 200, 5-(2-((3-fluorophenyl)amino)pyrimidin-4-yl)pyridin-3-ol], the IC50 by setting is: under setting [1], 1 to 10 µM; under setting [2], 1 to 10 µM.

The IC50 is the concentration that inhibits the measured activity by half.
